Key:
CK1α = biological target: T1, CK1α (Homo sapiens, UniProt P48729+Q96SW2); assay: Western blot, degradation of substrate protein in hPBMCs; type: cell-based; conditions: 24 hours treatment, compounds at 50 nM and 500 nM (concentration behind the class not stated)
T1 construct: effects of the compounds of the present disclosure on the expression of target proteins in cells; endogenous in cells; host or cells: human PBMCs (Milecell Biotechnologies)

IKZF1 = biological target: T2, IKZF1 (Homo sapiens, UniProt Q13422+Q96SW2); assay: as above; type: cell-based; conditions: 24 hours treatment, compounds at 50 nM and 500 nM (concentration behind the class not stated)
T2 construct: effects of the compounds of the present disclosure on the expression of target proteins in cells; endogenous in cells; host or cells: human PBMCs (Milecell Biotechnologies)

IKZF2 = biological target: T3, IKZF2 (Homo sapiens, UniProt Q96SW2+Q9UKS7); assay: as above; type: cell-based; conditions: 24 hours treatment, compounds at 50 nM and 500 nM (concentration behind the class not stated)
T3 construct: effects of the compounds of the present disclosure on the expression of target proteins in cells; endogenous in cells; host or cells: human PBMCs (Milecell Biotechnologies)

IKZF3 = biological target: T4, IKZF3 (Homo sapiens, UniProt Q96SW2+Q9UKT9); assay: as above; type: cell-based; conditions: 24 hours treatment, compounds at 50 nM and 500 nM (concentration behind the class not stated)
T4 construct: effects of the compounds of the present disclosure on the expression of target proteins in cells; endogenous in cells; host or cells: human PBMCs (Milecell Biotechnologies)

WEE1 = biological target: T5, WEE1 (Homo sapiens, UniProt P30291+Q96SW2); assay: as above; type: cell-based; conditions: 24 hours treatment, compounds at 50 nM and 500 nM (concentration behind the class not stated)
T5 construct: effects of the compounds of the present disclosure on the expression of target proteins in cells; endogenous in cells; host or cells: human PBMCs (Milecell Biotechnologies)

GSPT1 = assay: as above; type: cell-based, Human; conditions: 24 hours treatment, compounds at 50 nM and 500 nM (concentration behind the class not stated)
[1] = biological target: T6, human Cereblon WT GST-tagged protein (Homo sapiens, UniProt Q96SW2); assay: CRBN-binding affinity, HTRF (CEREBLON BINDING kit); conditions: for inhibition at 0.5 µM: read-out: Inhibition Rate at 0.5 µM (%); for inhibition at 2 µM: read-out: Inhibition Rate at 2 µM (%)
T6 construct: purchased CISBIO 64BDCRBNPEH
T6 sequence (Q96SW2 whole entry): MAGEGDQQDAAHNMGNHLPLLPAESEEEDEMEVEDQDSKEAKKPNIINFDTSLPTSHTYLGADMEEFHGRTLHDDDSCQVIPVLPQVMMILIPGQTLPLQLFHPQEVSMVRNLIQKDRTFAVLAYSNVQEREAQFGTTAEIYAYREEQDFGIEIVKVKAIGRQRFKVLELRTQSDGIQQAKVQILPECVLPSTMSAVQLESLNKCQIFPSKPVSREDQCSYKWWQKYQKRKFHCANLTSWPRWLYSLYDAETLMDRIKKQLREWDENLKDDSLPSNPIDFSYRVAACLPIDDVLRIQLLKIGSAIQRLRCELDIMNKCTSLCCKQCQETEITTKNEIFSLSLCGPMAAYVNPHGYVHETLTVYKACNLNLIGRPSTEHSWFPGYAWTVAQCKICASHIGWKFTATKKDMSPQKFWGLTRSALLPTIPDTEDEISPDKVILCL

T3 sequence (Q9UKS7 whole entry): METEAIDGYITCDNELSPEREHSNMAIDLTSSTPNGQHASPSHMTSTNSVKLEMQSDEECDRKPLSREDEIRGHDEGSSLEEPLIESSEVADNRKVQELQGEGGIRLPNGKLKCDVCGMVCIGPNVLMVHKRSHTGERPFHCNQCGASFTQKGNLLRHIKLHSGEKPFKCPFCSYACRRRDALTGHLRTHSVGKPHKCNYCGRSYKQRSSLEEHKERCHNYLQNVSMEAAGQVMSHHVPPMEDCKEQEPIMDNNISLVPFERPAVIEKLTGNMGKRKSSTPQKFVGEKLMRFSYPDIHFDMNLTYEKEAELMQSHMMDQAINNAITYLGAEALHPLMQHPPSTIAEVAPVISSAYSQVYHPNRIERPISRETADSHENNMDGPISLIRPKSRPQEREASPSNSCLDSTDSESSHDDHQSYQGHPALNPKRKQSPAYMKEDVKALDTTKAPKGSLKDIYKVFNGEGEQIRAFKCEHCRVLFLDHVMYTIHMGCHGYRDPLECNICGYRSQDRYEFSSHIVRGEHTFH
T3 sequence (Q96SW2 whole entry): as the sequence (Q96SW2 whole entry) above
T3 sequence (Q16531 whole entry partner): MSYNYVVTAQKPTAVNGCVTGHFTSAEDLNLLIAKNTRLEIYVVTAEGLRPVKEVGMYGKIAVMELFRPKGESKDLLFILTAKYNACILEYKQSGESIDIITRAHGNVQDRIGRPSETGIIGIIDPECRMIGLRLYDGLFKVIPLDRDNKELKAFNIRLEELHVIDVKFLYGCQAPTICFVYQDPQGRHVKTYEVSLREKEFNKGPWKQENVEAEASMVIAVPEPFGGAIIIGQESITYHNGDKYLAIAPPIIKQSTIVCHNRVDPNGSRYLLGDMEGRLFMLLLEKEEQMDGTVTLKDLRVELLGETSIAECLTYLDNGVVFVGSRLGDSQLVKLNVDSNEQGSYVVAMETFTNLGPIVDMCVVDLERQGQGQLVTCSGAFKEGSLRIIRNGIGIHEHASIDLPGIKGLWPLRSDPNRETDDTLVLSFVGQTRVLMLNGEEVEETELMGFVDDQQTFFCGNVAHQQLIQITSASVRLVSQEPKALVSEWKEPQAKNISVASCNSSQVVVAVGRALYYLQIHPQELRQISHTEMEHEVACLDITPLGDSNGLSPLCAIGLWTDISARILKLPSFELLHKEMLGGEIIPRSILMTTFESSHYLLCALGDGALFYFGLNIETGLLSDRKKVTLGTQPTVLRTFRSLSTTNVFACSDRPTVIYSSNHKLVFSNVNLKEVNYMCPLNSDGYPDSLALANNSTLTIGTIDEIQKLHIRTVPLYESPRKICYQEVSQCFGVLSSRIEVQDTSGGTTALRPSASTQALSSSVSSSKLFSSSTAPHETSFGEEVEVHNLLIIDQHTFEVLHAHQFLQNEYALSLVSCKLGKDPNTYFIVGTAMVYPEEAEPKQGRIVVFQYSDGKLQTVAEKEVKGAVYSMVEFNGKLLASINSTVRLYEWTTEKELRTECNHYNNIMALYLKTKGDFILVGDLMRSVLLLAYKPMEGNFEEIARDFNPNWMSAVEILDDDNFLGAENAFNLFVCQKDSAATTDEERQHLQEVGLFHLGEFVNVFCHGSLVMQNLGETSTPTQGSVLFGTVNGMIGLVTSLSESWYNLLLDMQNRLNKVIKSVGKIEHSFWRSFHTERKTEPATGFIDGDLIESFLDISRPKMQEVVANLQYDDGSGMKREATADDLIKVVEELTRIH
T2 sequence (Q13422 whole entry): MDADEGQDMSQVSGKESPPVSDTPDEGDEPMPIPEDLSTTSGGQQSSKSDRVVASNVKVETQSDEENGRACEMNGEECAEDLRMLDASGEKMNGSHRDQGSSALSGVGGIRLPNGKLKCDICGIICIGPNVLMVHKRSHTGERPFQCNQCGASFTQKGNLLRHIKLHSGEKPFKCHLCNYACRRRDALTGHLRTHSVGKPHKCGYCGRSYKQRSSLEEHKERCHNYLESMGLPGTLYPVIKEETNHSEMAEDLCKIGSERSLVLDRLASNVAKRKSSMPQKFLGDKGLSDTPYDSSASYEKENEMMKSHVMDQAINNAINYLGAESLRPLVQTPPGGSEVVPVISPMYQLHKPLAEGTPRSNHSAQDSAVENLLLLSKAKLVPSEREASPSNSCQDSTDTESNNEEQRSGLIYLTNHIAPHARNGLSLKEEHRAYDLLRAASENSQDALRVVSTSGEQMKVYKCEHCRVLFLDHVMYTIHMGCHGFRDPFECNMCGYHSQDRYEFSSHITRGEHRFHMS
T2 sequence (Q96SW2 whole entry): as the sequence (Q96SW2 whole entry) above
T2 sequence (Q16531 whole entry partner): as the sequence (Q16531 whole entry partner) above
T1 sequence (P48729 whole entry): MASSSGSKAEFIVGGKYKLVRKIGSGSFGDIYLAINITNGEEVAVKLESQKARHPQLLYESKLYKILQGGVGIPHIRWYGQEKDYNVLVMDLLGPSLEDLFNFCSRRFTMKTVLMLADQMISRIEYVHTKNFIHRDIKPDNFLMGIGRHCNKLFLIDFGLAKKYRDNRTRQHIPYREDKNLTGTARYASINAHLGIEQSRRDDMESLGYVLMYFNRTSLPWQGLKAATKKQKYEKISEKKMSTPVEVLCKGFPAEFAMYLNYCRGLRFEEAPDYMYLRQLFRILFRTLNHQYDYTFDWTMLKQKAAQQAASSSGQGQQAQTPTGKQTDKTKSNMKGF
T1 sequence (Q96SW2 whole entry): as the sequence (Q96SW2 whole entry) above
T1 sequence (Q16531 whole entry partner): as the sequence (Q16531 whole entry partner) above
T4 sequence (Q9UKT9 whole entry): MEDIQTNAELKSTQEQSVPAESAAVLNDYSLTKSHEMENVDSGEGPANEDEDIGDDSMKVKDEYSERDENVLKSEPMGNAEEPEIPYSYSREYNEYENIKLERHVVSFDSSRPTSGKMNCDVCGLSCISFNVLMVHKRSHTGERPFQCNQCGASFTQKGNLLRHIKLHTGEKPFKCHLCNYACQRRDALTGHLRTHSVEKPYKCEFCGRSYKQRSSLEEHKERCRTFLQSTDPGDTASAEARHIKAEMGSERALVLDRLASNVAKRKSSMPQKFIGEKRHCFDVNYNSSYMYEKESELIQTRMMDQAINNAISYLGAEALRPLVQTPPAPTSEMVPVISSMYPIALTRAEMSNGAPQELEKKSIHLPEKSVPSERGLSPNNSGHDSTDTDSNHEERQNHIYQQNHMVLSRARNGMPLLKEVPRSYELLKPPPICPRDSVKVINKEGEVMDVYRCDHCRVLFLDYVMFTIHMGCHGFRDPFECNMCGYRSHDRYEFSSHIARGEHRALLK
T4 sequence (Q96SW2 whole entry): as the sequence (Q96SW2 whole entry) above
T4 sequence (Q16531 whole entry partner): as the sequence (Q16531 whole entry partner) above
T5 sequence (P30291 whole entry): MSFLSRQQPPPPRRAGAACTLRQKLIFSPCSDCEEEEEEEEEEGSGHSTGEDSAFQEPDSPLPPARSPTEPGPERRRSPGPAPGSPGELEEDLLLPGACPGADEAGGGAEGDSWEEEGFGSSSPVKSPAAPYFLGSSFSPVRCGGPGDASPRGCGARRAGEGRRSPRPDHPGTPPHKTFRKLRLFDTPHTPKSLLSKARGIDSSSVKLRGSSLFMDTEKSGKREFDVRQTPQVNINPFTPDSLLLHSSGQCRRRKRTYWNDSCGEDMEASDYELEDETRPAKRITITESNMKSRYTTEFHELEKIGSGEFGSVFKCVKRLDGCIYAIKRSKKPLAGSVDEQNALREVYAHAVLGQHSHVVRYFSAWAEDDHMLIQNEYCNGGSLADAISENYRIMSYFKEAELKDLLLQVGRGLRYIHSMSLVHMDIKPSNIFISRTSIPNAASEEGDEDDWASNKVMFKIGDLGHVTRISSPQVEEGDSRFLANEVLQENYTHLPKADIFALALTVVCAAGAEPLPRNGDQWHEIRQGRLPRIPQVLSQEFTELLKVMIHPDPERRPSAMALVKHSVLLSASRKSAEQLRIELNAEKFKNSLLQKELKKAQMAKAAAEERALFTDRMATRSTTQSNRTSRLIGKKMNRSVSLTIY
T5 sequence (Q96SW2 whole entry): as the sequence (Q96SW2 whole entry) above
T5 sequence (Q16531 whole entry partner): as the sequence (Q16531 whole entry partner) above

Row | SMILES | inhibition at 0.5 µM [1] [%] | inhibition at 2 µM [1] [%] | CK1α substrate protein remaining % (CK1α) | IKZF 1 substrate protein remaining % (IKZF1) | IKZF2 substrate protein remaining % (IKZF2) | IKZF3 substrate protein remaining % (IKZF3) | Wee1 substrate protein remaining % (WEE1) | GSPT1 substrate protein remaining % (GSPT1)
1 | Cc1cc2c(N3CCN(Cc4cccc5c4CN(C4CCC(=O)NC4=O)C5=S)CC3)ncnc2s1 (stereo not shown) [GT-08914, 3-(4-((4-(6-methylthieno[2,3-d]pyrimidin-4-yl)piperazin-1-yl)methyl)-1-thioxoisoindolin-2-yl)piperidine-2,6-dione] | 60 to 80 | 80 to 100 | B (80%< substrate protein remaining %≤ 100%) | B (80%< substrate protein remaining %≤ 100%) | B (80%< substrate protein remaining %≤ 100%) | B (80%< substrate protein remaining %≤ 100%) | A (0% ≤ substrate protein remaining % ≤ 80%) | B (80%< substrate protein remaining %≤ 100%)
2 | Cc1sc2ncnc(N3CCN(Cc4cccc5c4CN(C4CCC(=O)NC4=O)C5=S)CC3)c2c1C (stereo not shown) [GT-08916, 3-(4-((4-(5,6-dimethylthieno[2,3-d]pyrimidin-4-yl)piperazin-1-yl)methyl)-1-thioxoisoindolin-2-yl)piperidine-2,6-dione] | 40 to 53 | 80 to 100 | B (80%< substrate protein remaining %≤ 100%) | B (80%< substrate protein remaining %≤ 100%) | B (80%< substrate protein remaining %≤ 100%) | B (80%< substrate protein remaining %≤ 100%) | A (0% ≤ substrate protein remaining % ≤ 80%) | A (0% ≤ substrate protein remaining % ≤ 80%)
3 | Cc1sc2ncnc(N3CCCN(Cc4cccc5c4CN(C4CCC(=O)NC4=O)C5=S)CC3)c2c1C (stereo not shown) [GT-08917, 3-(4-((4-(5,6-dimethylthieno[2,3-d]pyrimidin-4-yl)-1,4-diazepan-1-yl)methyl)-1-thioxoisoindolin-2-yl)piperidine-2,6-dione] | 53 to 60 | 80 to 100 | B (80%< substrate protein remaining %≤ 100%) | B (80%< substrate protein remaining %≤ 100%) | B (80%< substrate protein remaining %≤ 100%) | B (80%< substrate protein remaining %≤ 100%) | A (0% ≤ substrate protein remaining % ≤ 80%) | A (0% ≤ substrate protein remaining % ≤ 80%)

More lines, main results first:

Row | inhibition at 0.5 µM [1] [%] | inhibition at 2 µM [1] [%] | SMILES | CK1α substrate protein remaining % (CK1α) | IKZF 1 substrate protein remaining % (IKZF1) | IKZF2 substrate protein remaining % (IKZF2) | IKZF3 substrate protein remaining % (IKZF3) | Wee1 substrate protein remaining % (WEE1) | GSPT1 substrate protein remaining % (GSPT1)
4 | 60 to 80 | 80 to 100 | O=C1CCC(N2Cc3c(CN4CCN(c5ncnc6sc(Br)cc56)CC4)cccc3C2=S)C(=O)N1 (stereo not shown) [GT-08918, 3-(4-((4-(6-bromothieno[2,3-d]pyrimidin-4-yl)piperazin-1-yl)methyl)-1-thioxoisoindolin-2-yl)piperidine-2,6-dione] | B (80%< substrate protein remaining %≤ 100%) | B (80%< substrate protein remaining %≤ 100%) | B (80%< substrate protein remaining %≤ 100%) | B (80%< substrate protein remaining %≤ 100%) | A (0% ≤ substrate protein remaining % ≤ 80%) | B (80%< substrate protein remaining %≤ 100%)
5 | 20 to 30 | 60 to 80 | O=C1CCC(N2Cc3c(CN4CCN(c5ncnc6sc(-c7ccccc7)cc56)CC4)cccc3C2=S)C(=O)N1 (stereo not shown) [GT-08919, 3-(4-((4-(6-phenylthieno[2,3-d]pyrimidin-4-yl)piperazin-1-yl)methyl)-1-thioxoisoindolin-2-yl)piperidine-2,6-dione] | B (80%< substrate protein remaining %≤ 100%) | B (80%< substrate protein remaining %≤ 100%) | B (80%< substrate protein remaining %≤ 100%) | B (80%< substrate protein remaining %≤ 100%) | A (0% ≤ substrate protein remaining % ≤ 80%) | B (80%< substrate protein remaining %≤ 100%)

Reference: patent publication EP4745135A1 (Gluetacs Therapeutics (Shanghai) Co., Ltd., priority 2023, dated 2025)
